Like-named read-outs stand apart in the source and are kept apart here. Marks after values point to notes of the source that are not given here. No end group written: not given here.
How the values were obtained:
PC12 cells [1] = experiment: Toxicity on cell integrity, crystal violet, PC12 cells; type: cell-based, rat
Description: (§1) The cytotoxic effects of α-campsomerin and β-campsomerin were determined by the staining of attached cells with crystal violet dye, according to the literature. In a 96-well plate (Nest Biotechnology, Rahway, USA), PC12 and Vero cells were put at 2.0 × 10^4 and 1.0 × 10^4 cells/well, respectively. Cells were treated with different concentrations (0.1 to 10 µmol·L^−1) of peptides in 0.10 mL. The plate was incubated for 1, 6, 24, and 48 h at 37 °C. There were control and DMSO groups for each concentration and time course tested, representing untreated cells (just one equal volume of culture medium) and cells treated with DMSO (5%; v/v) diluted in the medium culture, respectively. The media was then aspirated, and the cells were stained with a 0.5 percent crystal violet staining solution (0.5%; m/v), washed, and air-dried. Afterwards, methanol (200 μL) was added, and the absorbance measured at 570 nm using a SpectraMax reader (Molecular Devices, CA, USA). Data were obtained from three independent experiments in triplicate, and were expressed by percentage of cell viability, calculated using the control group as 100% of integrity.

Vero cells = experiment: Toxicity on cell integrity, crystal violet, Vero cells; type: cell-based, Cercopithecus aethiops (African green monkey); settings: for cytotoxicity in Vero cells: 0.1, 1 and 10 μmol·L−1, 1, 6, 24 and 48 h, vs untreated cells, n = 3 in triplicate
Description: as §1

PC12 cells [2] = experiment: Neuroprotective assay against H2O2-induced oxidative stress; type: cell-based, rat
Description: Initially, PC12 cells were seeded at 2 × 10^4 cells/well in a 96-well plate (Nest Biotechnology, Rahway, NJ, USA) for 24 h. To evaluate the neuroprotective effects of peptides, cells were pre-treated at 37 °C with α-campsomerin and β-campsomerin (0.1 to 20 µmol·L^−1), diluted in DMEM medium supplemented with antibiotics without fetal bovine serum for 4 h. […] Cells untreated with H2O2 represent control group in all experiments. Next, all groups were analyzed by the cell integrity.

[3] = biological target: T1, AChE from Electrophorus electricus (electric eel) Type VI-S (Electrophorus electricus, UniProt O42275); experiment: AChE activity, Ellman's technique; type: biochemical; settings: positive control; mean ± SD, three independent experiments in triplicate
T1 construct: purchased Sigma-Aldrich Type VI-S
T1 sequence (O42275 24-633): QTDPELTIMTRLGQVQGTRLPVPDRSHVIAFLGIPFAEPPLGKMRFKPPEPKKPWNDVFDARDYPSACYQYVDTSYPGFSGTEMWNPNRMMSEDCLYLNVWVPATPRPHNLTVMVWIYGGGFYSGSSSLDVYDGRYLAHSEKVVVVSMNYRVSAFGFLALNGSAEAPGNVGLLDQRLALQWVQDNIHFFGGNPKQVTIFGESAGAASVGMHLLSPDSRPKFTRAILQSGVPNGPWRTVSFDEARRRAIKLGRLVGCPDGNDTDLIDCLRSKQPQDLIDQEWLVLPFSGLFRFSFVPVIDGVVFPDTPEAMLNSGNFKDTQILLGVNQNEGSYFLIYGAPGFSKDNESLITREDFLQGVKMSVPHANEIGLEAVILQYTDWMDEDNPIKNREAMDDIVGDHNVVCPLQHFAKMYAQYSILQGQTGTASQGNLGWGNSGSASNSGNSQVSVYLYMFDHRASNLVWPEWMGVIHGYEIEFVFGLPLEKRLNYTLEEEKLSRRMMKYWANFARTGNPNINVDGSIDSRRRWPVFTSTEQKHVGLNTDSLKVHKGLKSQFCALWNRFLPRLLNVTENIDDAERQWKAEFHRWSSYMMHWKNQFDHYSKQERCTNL
Description: The AChE activity was evaluated spectrophotometrically using Ellman’s technique, as previously reported by Harry et al., with slight modifications. Both peptides (20 μL) at varied concentrations (20, 10, 5, 1, and 0.1 µmol·L^−1), 10 μL of AChE (0.5 U·mL^−1) (Sigma, St. Louis, MO, USA) and 160 μL of 5,5-dithiobis-2-nitrobenzoic acid (DTNB, Ellman’s reagent) 0.33 mM (Sigma, St. Louis, MO, USA) in phosphate buffer (0.1 mo·L^−1, pH 8.0) were placed in triplicate in a microplate, and incubated at room temperature for 10 min after adding 10 μL of acetylthiocholine iodide (20 mmol·L^−1) (Sigma, St. Louis, MO, USA). The hydrolysis of acetylthiocholine iodide leads to production of acetic acid and thiocholine, which reacts with DTNB producing the anion 5-thio-2-nitrobenzoic acid, which was monitored at 412 nm during 20 min in microplate reader (BioTek Instruments, Inc., Winooski, VT, USA. Tetraethyl pyrophosphate (TEPP; Sigma, St. Louis, MO, USA) was used as a positive control. IAChE = [(Ac − As)/Ac] × 100, where Ac = absorbance for the control and As = absorbance for the sample was used to compute the percentage of inhibition (I) of AChE.

neuronal cell lines = settings: previous study; neuronal cell integrity and mitochondrial metabolism; ref [28]; cited from earlier work
Text: The venom of solitary wasps is a rich source of neuroactive chemicals, including bradykinin-related peptides, which disrupt the synaptic transmission of the nAChR in the central nervous system of prey. Our group has studied the neuroprotective effects of natural peptides from solitary wasp venoms against the H2O2-induced oxidative stress in neuronal cell lines after different treatments for acute and chronic conditions.. This cell model, which promotes excessive ROS generation, with consequent neurotoxic effects, represents typical characte ...

[4] = system: Saccharomyces cerevisiae (NBRC 10217); experiment: Antimicrobial activity (MIC), S. cerevisiae; type: cell-based
Description: (§2) Antimicrobial, hemolytic, and histamine-releasing activities were measured as described previously. The microbial species used in this study were: Escherichia coli (NBRC 14237), Staphylococcus aureus (NBRC 12732), and Saccharomyces cerevisiae (NBRC 10217), which were purchased from the Biological Resource Center (BRC, Kisarazu, Japan), National Institute of Technology and Evaluation. The pI of peptides was calculated with IPC (http://isoelectric.org/index.html, accessed on 8 November 2021). The physicochemical properties were examined using HeliQuest (http://heliquest.ipmc.cnrs.fr/, accessed on 8 November 2021).

[5] = system: Escherichia coli (NBRC 14237); experiment: Antimicrobial activity (MIC), E. coli; type: cell-based
Description: as §2

[6] = system: Staphylococcus aureus (NBRC 12732); experiment: Antimicrobial activity (MIC), S. aureus; type: cell-based
Description: as §2

Hemolytic activity = type: cell-based
Description: as §2

mast cells [7] = experiment: Histamine-releasing activity; type: cell-based
Description: as §2

mast cells [8] = settings: ref Shigeri et al. [34]; cited from earlier work
Text: Table 10 Antimicrobial, hemolytic, and histamine-releasing activities of annulatin and related peptides. | column: Histamine Releasing Activity at 10 μmol·L^−1 (%)

[9] = ref Shigeri et al. [34]; cited from earlier work
Text: Table 10 Antimicrobial, hemolytic, and histamine-releasing activities of annulatin and related peptides. | column: Hemolytic Activity (%) / at 10 μmol·L^−1

ACE I = system: T2, ACE I; experiment: Stability test: cleavage of peptide by ACE; type: in vitro ADME; settings: rabbit, isolated ACE I from rabbit lung; peptide 30 µmol·L−1 incubated four hours at 37 °C with ACE (7.5 n); RP-HPLC C-18, UV 214 nm
T2 construct: The ACE I from rabbit lung; purchased Sigma-Aldrich; host or cells: rabbit lung
Description: (§3) Both peptides (30 µmol·L^−1) were incubated for four hours at 37 °C with ACE and NEP (7.5 n). As a negative control, samples containing only synthetic peptides were employed. After incubation, samples were analyzed on a Shim-pack VP-ODS C-18 column (4.6 150 mm) utilizing reverse-phase chromatography on HPLC (Prominence, Shimadzu). Solvent A was 0.1% TFA in water (solvent A), and solvent B was acetonitrile plus solvent A (9:1). Over a 20-min period, separations were carried out at a flow rate of 1 mL/min with a 10–60 percent gradient of solvent B. Elution was always followed by an assessment of UV absorption (214 nm).

neprilysin (NEP) = experiment: Stability test: cleavage of peptide by NEP; type: in vitro ADME; settings: human, isolated human neprilysin (NEP); peptide 30 µmol·L−1 incubated four hours at 37 °C with NEP (7.5 n); RP-HPLC C-18, UV 214 nm
Description: as §3

human neprilysin (NEP) = human neprilysin (NEP) (Homo sapiens, UniProt P08473); experiment: NEP catalytic activity inhibition (FRET substrate); type: biochemical; settings: peptide 20, 30 and 50 μmol·L−1; FRET substrate Abz-RGFK(Dnp)-OH 2, 4, 8 μmol·L−1; Tris HCl 50 mmol·L−1 pH 7.5; 37 °C; 15 min; triplicate
Chain of human neprilysin (NEP) (P08473 whole entry): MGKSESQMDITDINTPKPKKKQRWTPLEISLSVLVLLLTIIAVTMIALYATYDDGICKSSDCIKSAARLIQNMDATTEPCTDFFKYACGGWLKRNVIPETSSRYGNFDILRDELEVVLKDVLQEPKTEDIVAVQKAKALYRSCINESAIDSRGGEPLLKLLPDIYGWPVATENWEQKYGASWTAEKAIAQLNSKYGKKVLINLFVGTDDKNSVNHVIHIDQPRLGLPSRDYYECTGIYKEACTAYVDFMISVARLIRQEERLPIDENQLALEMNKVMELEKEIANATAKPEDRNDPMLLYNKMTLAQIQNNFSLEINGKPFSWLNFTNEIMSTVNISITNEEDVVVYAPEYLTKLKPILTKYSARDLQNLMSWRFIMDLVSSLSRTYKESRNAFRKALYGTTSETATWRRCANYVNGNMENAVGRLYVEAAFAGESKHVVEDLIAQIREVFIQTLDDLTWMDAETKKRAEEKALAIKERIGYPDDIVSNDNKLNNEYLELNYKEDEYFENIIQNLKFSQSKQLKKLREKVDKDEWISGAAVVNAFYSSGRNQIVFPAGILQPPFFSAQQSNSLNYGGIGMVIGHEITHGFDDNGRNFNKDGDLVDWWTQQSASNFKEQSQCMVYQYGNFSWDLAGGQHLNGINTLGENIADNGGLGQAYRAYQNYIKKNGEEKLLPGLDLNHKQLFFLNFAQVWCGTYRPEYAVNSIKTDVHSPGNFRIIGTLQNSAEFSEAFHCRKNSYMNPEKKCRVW
Description: (§4) Experiments were performed using different concentrations of α-campsomerin and β-campsomerin with ACE and NEP, and their FRET substrates, FRK(Dnp)P-OH and Abz-RGFK (Dnp)-OH, respectively. The assays used 7.5 ng of both peptidases and the substrates were added in a 100 mmol·L^−1 Tris-HCl buffer containing 50 mmol·L^−1 NaCl, 10 μmol·L^−1 ZnCl2, pH 7.0 (for ACE assays) and Tris HCl 50 mmol·L^−1, pH 7.5 buffer (for NEP assays). All experiments were carried out at 37 °C and at a final volume of 100 µL Three FRETs substrate concentrations were used (2 μmol·L^−1, 4 μmol·L^−1 and 8 μmol·L^−1), and were incubated with three concentrations of both peptides (20 μmol·L^−1, 30 μmol·L^−1 and 50 μmol·L^−1). Controls without the peptides were also performed in all assays. The reactions were monitored for 15 min on fluorimeter (Victor 3—Perkin–Elmer) and the results were analyzed on GraFit 3.0 from Erithacus Software. All assays were performed in triplicate.

ACE I from rabbit lung = biological target: T3, ACE I from rabbit lung (Oryctolagus cuniculus, UniProt P12822); experiment: ACE catalytic activity inhibition (FRET substrate); type: biochemical; settings: peptide 20, 30 and 50 μmol·L−1; FRET substrate Abz-FRK(Dnp)P-OH 2, 4, 8 μmol·L−1; 100 mmol·L−1 Tris-HCl, 50 mmol·L−1 NaCl, 10 μmol·L−1 ZnCl2, pH 7.0; 37 °C; 15 min; triplicate
T3 construct: The ACE I from rabbit lung; purchased Sigma-Aldrich; host or cells: rabbit lung
T3 sequence (P12822 34-1310): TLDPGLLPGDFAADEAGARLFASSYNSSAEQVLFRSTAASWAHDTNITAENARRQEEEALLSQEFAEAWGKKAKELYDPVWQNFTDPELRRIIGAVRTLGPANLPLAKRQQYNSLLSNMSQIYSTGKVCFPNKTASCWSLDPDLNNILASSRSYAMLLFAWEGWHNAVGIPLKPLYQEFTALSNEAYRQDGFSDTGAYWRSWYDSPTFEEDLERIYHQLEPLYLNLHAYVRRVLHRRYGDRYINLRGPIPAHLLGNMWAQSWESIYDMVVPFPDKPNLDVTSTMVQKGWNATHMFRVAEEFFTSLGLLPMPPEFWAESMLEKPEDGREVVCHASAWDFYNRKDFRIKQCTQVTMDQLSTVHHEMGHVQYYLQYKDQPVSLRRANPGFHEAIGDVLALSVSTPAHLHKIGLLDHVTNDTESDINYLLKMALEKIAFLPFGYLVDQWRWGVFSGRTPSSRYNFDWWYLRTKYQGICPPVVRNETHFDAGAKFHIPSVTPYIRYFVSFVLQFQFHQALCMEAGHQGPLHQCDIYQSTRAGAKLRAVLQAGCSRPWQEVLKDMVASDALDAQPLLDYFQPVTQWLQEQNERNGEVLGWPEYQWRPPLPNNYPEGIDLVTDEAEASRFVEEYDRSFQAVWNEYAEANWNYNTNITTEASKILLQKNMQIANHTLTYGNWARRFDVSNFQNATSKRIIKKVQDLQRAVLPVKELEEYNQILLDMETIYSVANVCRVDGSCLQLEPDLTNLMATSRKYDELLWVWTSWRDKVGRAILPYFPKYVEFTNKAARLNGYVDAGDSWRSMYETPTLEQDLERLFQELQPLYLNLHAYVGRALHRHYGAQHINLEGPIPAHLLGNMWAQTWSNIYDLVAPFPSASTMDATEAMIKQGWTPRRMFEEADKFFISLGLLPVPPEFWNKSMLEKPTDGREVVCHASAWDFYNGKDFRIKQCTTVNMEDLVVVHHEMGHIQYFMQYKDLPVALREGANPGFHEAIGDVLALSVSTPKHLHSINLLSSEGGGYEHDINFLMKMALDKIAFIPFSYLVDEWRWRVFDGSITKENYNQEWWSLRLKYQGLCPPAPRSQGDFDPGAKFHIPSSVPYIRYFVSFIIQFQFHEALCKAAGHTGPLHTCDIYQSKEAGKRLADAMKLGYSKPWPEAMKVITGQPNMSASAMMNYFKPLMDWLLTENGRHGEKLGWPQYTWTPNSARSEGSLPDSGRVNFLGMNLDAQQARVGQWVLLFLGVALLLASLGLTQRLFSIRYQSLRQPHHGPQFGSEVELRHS
Description: as §4

[10] = DMSO 5% (v/v), after 6, 24 and 48 h, vs control group

C[S+](C)[O-] [DMSO, reference compound]
cell integrity in PC12 cells, DMSO positive control (PC12 cells [1]; [10]): decreased cell integrity
cell integrity in Vero cells, DMSO positive control (Vero cells; [10]): decreased cell integrity

OO [H2O2]
reduction of PC12 cell integrity by H2O2 (PC12 cells [2]; H2O2 0.5 mmol·L−1, 20 h of treatment): 60.5 ± 4.0%
H2O2 concentrations promoting PC12 cell death (PC12 cells [2]; tested 1–0.06 mmol·L−1, 20 h, dose-dependent): greater than 0.3 mmol·L−1

CCOP(=O)(OCC)OP(=O)(OCC)OCC [TEPP, tetraethyl pyrophosphate]
AChE inhibition percentage [3]: 76.20 ± 1.42%

DYVTVKGFSPLRKA [β-scoliidine]
neuroprotective effects against H2O2-induced neurotoxicity in prolonged therapy (neuronal cell lines): showed neuroprotective effects

ISEALKSIIVG-NH2 [Annulatin]
MIC S. cerevisiae (NBRC 10217) [4]: Negative
MIC E. coli (NBRC 14237) [5]: Negative
MIC S. aureus (NBRC 12732) [6]: Negative
Hemolytic Activity (%) at 12.5 μmol·L−1 (Hemolytic activity): 15.4%
Histamine Releasing Activity at 10 μmol·L−1 (%) (mast cells [7]): 33.0%

Mastoparan
Histamine Releasing Activity at 10 μmol·L−1 (%) (mast cells [8]): 31.1 ^b %
Hemolytic Activity (%) at 10 μmol·L−1 [9]: 13.5 ^b %

Melittin: honeybee hemolytic peptide
Histamine Releasing Activity at 10 μmol·L−1 (%) (mast cells [8]): 64.3 ^b %
Hemolytic Activity (%) at 10 μmol·L−1 [9]: 100.0 ^b %

PRLRRLTGLSPLR [α-campsomerin]
metabolised at 4 h, 30 µmol·L−1 (ACE I): < 0.01%
metabolised at 4 h, 30 µmol·L−1 (neprilysin (NEP)): < 0.01%
Inhibition (%) NEP (human neprilysin (NEP)): <0.01%
Inhibition (%) ACE (ACE I from rabbit lung): <0.01%
PC12 cell integrity after 6 h of treatment (PC12 cells [1]; all concentrations tested (0.1, 1, 10 μmol·L−1), 6 h): reduced cell integrity
cytotoxicity in Vero cells (Vero cells): no significant cytotoxicity

PRLRRLTGLSPLRAP [β-campsomerin]
metabolised at 4 h, 30 µmol·L−1 (ACE I): < 0.01%
metabolised at 4 h, 30 µmol·L−1 (neprilysin (NEP)): < 0.01%
Inhibition (%) NEP (human neprilysin (NEP)): <0.01%
Inhibition (%) ACE (ACE I from rabbit lung): <0.01%
toxicity in PC12 cells under the conditions tested (discussion) (PC12 cells [1]; 0.1 to 10 µmol·L−1, up to 48 h): not toxic
cytotoxicity in Vero cells (Vero cells): no significant cytotoxicity
